Measured values: patent publication US20100267561A1, “HERBICIDAL PYRIDAZINONE DERIVATIVES” (priority 2007, published 2010)

Experiments:
Test in all cases: Test B pre-/postemergence plant response
Format in all cases: in vivo
[1] = tested on: blackgrass (Alopecurus myosuroides); settings: for Blackgrass plant response rating: 8 g ai/ha
How it was run: (§1)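 Preemergence and postemergence (plants 2-18 cm, 1- to 4-leaf stage) applications used test chemicals in a non-phytotoxic solvent with surfactant. Plants were held in a greenhouse 13 to 15 days, then rated visually against controls on a 0-100 scale (0 no effect, 100 complete control).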

[2] = tested on: catchweed bedstraw (Galium aparine); settings: Preemergence
How it was run: as §1

[3] = tested on: common (oilseed) sunflower (Helianthus annuus); settings: Preemergence
How it was run: as §1

corn (Zea mays) = settings: for Corn plant response rating: 8 g ai/ha
How it was run: as §1

[4] = tested on: downy bromegrass (Bromus tectorum); settings: for Bromegrass, Downy plant response rating: 8 g ai/ha
How it was run: as §1

[5] = tested on: eastern black (E.B.) nightshade (Solanum ptycanthum); settings: Preemergence
How it was run: as §1

[6] = tested on: giant foxtail (Setaria faberii); settings: for Foxtail, Giant plant response rating: 8 g ai/ha
How it was run: as §1

[7] = tested on: green foxtail (Setaria viridis); settings: for Foxtail, Green plant response rating: 8 g ai/ha
How it was run: as §1

[8] = tested on: johnsongrass (Sorghum halepense); settings: for Johnsongrass plant response rating: 8 g ai/ha
How it was run: as §1

kochia (Kochia scoparia) = settings: for Kochia plant response rating: 8 g ai/ha
How it was run: as §1

[9] = tested on: morningglory (Ipomoea coccinea); settings: for Morningglory plant response rating: 8 g ai/ha
How it was run: as §1

[10] = tested on: pigweed (Amaranthus retroflexus); settings: for Pigweed plant response rating: 8 g ai/ha
How it was run: as §1

[11] = tested on: surinam grass (Brachiaria decumbens); settings: for Surinam Grass plant response rating: 8 g ai/ha
How it was run: as §1

[12] = tested on: woolly cupgrass (Eriochloa villosa); settings: for Cupgrass, Woolly plant response rating: 8 g ai/ha
How it was run: as §1

[13] = Postemergence, 16 g ai/ha, scale 0 to 100
[14] = Postemergence, 31 g ai/ha, scale 0 to 100, 0 no effect, 100 complete control
[15] = Postemergence, 62 g ai/ha, scale 0 to 100
[16] = Preemergence, 16 g ai/ha, scale 0 to 100 (0 no effect, 100 complete control)
[17] = Preemergence, 31 g ai/ha, 0 to 100 scale, 0 no effect, 100 complete control
[18] = Preemergence, 62 g ai/ha, scale 0 to 100
[19] = 16 g ai/ha, scale 0 to 100 (0 no effect, 100 complete control)
[20] = 31 g ai/ha, 0 to 100 scale, 0 no effect, 100 complete control

Structure (SMILES): CCc1cc(-c2ccc(Cl)cc2)nn1-c1c(O)cnn(C)c1=O [Compound 21]
- Blackgrass plant response rating ([1]; postemergence, 0-100 scale): 95
- Plant response rating, Blackgrass [1, 13]: 95
- Plant response rating, Blackgrass [1, 14]: 100
- Plant response rating, Blackgrass [1, 15]: 100
- Plant response rating, Blackgrass [1, 16]: 100
- Plant response rating, Blackgrass [1, 17]: 100
- Plant response rating, Blackgrass [1, 18]: 100
- Blackgrass plant response rating ([1]; Preemergence, scale 0 to 100): 95
- Plant response rating, Galium [2, 19]: 0
- Plant response rating, Galium [2, 20]: 0
- Plant response rating, Galium ([2]; 62 g ai/ha, scale 0 to 100): 90
- Galium plant response rating ([2]; 8 g ai/ha, scale 0 to 100): 0
- Plant response rating, Sunflower [3, 19]: 0
- Plant response rating, Sunflower [3, 20]: 0
- Plant response rating, Sunflower ([3]; 62 g ai/ha, scale 0 to 100): 0
- Corn plant response rating (corn (Zea mays); postemergence, 0-100 scale): 50
- Plant response rating, Corn (corn (Zea mays); [13]): 100
- Plant response rating, Corn (corn (Zea mays); [14]): 100
- Plant response rating, Corn (corn (Zea mays); [15]): 100
- Plant response rating, Corn (corn (Zea mays); [16]): 80
- Plant response rating, Corn (corn (Zea mays); [17]): 95
- Plant response rating, Corn (corn (Zea mays); [18]): 98
- Corn plant response rating (corn (Zea mays); Preemergence, scale 0 to 100): 70
- Bromegrass, Downy plant response rating ([4]; postemergence, 0-100 scale): 55
- Plant response rating, Bromegrass, Downy [4, 13]: 55
- Plant response rating, Bromegrass, Downy [4, 14]: 80
- Plant response rating, Bromegrass, Downy [4, 15]: 85
- Plant response rating, Bromegrass, Downy [4, 16]: 50
- Plant response rating, Bromegrass, Downy [4, 17]: 60
- Plant response rating, Bromegrass, Downy [4, 18]: 100
- Bromegrass, Downy plant response rating ([4]; Preemergence, scale 0 to 100): 0
- Plant response rating, Nightshade, E. B. [5, 19]: 0
- Plant response rating, Nightshade, E. B. [5, 20]: 0
- Nightshade, E. B. plant response rating ([5]; 8 g ai/ha, scale 0 to 100): 0
- Foxtail, Giant plant response rating ([6]; postemergence, 0-100 scale): 98
- Plant response rating, Foxtail, Giant [6, 13]: 100
- Plant response rating, Foxtail, Giant [6, 14]: 100
- Plant response rating, Foxtail, Giant [6, 15]: 100
- Plant response rating, Foxtail, Giant [6, 16]: 100
- Plant response rating, Foxtail, Giant [6, 17]: 100
- Plant response rating, Foxtail, Giant [6, 18]: 100
- Foxtail, Giant plant response rating ([6]; Preemergence, scale 0 to 100): 85
- Foxtail, Green plant response rating ([7]; postemergence, 0-100 scale): 95
- Plant response rating, Foxtail, Green [7, 13]: 100
- Plant response rating, Foxtail, Green [7, 14]: 100
- Plant response rating, Foxtail, Green [7, 15]: 100
- Plant response rating, Foxtail, Green [7, 16]: 100
- Plant response rating, Foxtail, Green [7, 17]: 100
- Plant response rating, Foxtail, Green [7, 18]: 100
- Foxtail, Green plant response rating ([7]; Preemergence, scale 0 to 100): 100
- Johnsongrass plant response rating ([8]; postemergence, 0-100 scale): 60
- Plant response rating, Johnsongrass [8, 13]: 90
- Plant response rating, Johnsongrass [8, 14]: 90
- Plant response rating, Johnsongrass [8, 15]: 100
- Plant response rating, Johnsongrass [8, 16]: 85
- Plant response rating, Johnsongrass [8, 17]: 90
- Plant response rating, Johnsongrass [8, 18]: 100
- Johnsongrass plant response rating ([8]; Preemergence, scale 0 to 100): 0
- Kochia plant response rating (kochia (Kochia scoparia); postemergence, 0-100 scale): 0
- Plant response rating, Kochia (kochia (Kochia scoparia); [13]): 0
- Plant response rating, Kochia (kochia (Kochia scoparia); [14]): 0
- Plant response rating, Kochia (kochia (Kochia scoparia); [15]): 0
- Plant response rating, Kochia (kochia (Kochia scoparia); [16]): 0
- Plant response rating, Kochia (kochia (Kochia scoparia); [17]): 0
- Plant response rating, Kochia (kochia (Kochia scoparia); [18]): 0
- Kochia plant response rating (kochia (Kochia scoparia); Preemergence, scale 0 to 100): 0
- Morningglory plant response rating ([9]; postemergence, 0-100 scale): 0
- Plant response rating, Morningglory [9, 13]: 0
- Plant response rating, Morningglory [9, 14]: 0
- Plant response rating, Morningglory [9, 15]: 0
- Plant response rating, Morningglory [9, 16]: 0
- Plant response rating, Morningglory [9, 17]: 0
- Plant response rating, Morningglory [9, 18]: 0
- Morningglory plant response rating ([9]; Preemergence, scale 0 to 100): 0
- Pigweed plant response rating ([10]; postemergence, 0-100 scale): 0
- Plant response rating, Pigweed [10, 13]: 0
- Plant response rating, Pigweed [10, 14]: 0
- Plant response rating, Pigweed [10, 15]: 0
- Plant response rating, Pigweed [10, 16]: 0
- Plant response rating, Pigweed [10, 17]: 0
- Plant response rating, Pigweed [10, 18]: 0
- Pigweed plant response rating ([10]; Preemergence, scale 0 to 100): 0
- Surinam Grass plant response rating ([11]; postemergence, 0-100 scale): 100
- Plant response rating, Surinam Grass [11, 13]: 100
- Plant response rating, Surinam Grass [11, 14]: 100
- Plant response rating, Surinam Grass [11, 15]: 100
- Plant response rating, Surinam Grass [11, 16]: 100
- Plant response rating, Surinam Grass [11, 18]: 100
- Surinam Grass plant response rating ([11]; Preemergence, scale 0 to 100): 98
- Cupgrass, Woolly plant response rating ([12]; postemergence, 0-100 scale): 100
- Plant response rating, Cupgrass, Woolly [12, 13]: 100
- Plant response rating, Cupgrass, Woolly [12, 14]: 100
- Plant response rating, Cupgrass, Woolly [12, 15]: 100
- Plant response rating, Cupgrass, Woolly [12, 16]: 100
- Plant response rating, Cupgrass, Woolly [12, 18]: 100
- Cupgrass, Woolly plant response rating ([12]; Preemergence, scale 0 to 100): 60
